Test results as given in patent US7087609B2, “3-(pyridinyl-piperazin-1-yl)-phenylethyl amides as potassium channel openers” (Bristol-Myers Squibb Company, priority 2002, dated 2006).

Target: voltage-gated K+ channel KCNQ2 (Homo sapiens, UniProt O43526)
Assay: thallium flux assay to detect openers of KCNQ potassium channels
Type: cell-based
Settings: thallium influx assay; 10 point concentration series, 1:3 dilutions; concentration yielding 50% of maximal response (opening)
Description: A thallium flux assay was used to detect and characterize openers of KCNQ potassium channels. The thallium assay is generally described in International application WO 02/31508 published Apr. 18, 2002. More specifically, the thallium influx assay to detect compounds that block or open the voltage-gated K^+ channel KCNQ2 is described in Example IV of the published WO 02/31508 application.
For data analysis, the amplitude of the average of the negative controls was subtracted from all wells. The amplitudes of the test compounds were then compared to the value of four standard deviations of the negative control wells. The lowest concentration of a test compound sufficient to generate a signal amplitude greater than or equal to four standard deviations from the amplitude of the negative controls was defined as the minimal active concentration.
For generating EC50 values, compounds were serially diluted in 1:3 volume increments to produce a 10 point concentration series. EC50 values were calculated by fitting the resulting amplitudes to a single-site logistic equation. EC50 was defined as the concentration of test compound required to yield 50% of the maximal response. Maximal response (Maximal opening) was the largest signal amplitude above the negative control generated by any concentration of a test compound.

Chain of voltage-gated K+ channel KCNQ2 (O43526 whole entry): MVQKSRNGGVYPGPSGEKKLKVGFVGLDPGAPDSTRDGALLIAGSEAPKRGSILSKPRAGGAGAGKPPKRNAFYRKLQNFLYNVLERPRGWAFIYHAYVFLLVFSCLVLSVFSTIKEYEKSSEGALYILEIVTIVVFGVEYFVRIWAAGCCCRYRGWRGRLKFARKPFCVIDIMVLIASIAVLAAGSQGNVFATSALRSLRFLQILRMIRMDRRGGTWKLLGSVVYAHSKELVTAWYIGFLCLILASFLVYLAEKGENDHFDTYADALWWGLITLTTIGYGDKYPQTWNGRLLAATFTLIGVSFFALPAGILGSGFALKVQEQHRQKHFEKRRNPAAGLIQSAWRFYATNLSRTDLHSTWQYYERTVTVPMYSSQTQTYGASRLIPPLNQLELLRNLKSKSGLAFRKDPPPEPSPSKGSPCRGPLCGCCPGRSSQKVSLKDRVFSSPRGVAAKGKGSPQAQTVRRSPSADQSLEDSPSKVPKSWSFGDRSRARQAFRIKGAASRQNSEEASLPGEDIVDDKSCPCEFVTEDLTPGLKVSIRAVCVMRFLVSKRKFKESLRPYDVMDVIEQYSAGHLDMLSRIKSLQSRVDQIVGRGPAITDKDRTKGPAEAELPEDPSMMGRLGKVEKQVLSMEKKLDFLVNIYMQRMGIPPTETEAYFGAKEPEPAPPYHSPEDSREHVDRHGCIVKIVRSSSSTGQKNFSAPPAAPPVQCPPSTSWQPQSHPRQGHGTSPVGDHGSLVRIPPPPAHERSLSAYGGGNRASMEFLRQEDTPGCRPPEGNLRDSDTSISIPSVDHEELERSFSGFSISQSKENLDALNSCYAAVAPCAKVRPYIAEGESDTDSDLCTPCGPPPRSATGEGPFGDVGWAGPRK

Compound	EC50 [nM]
C[C@H](NC(=O)/C=C/c1cccc(F)c1F)c1cccc(N2CCN(c3ccccn3)CC2)c1 [Example 10, (S)-3-(2,3-Difluoro-phenyl)-N-{1-[3-(4-pyridin-2-yl-piperazin-1-yl)-phenyl]-ethyl}-acrylamide]	1
C[C@H](NC(=O)/C=C/c1c(F)cccc1F)c1cccc(N2CCN(c3ccccn3)CC2)c1 [Example 13, (S)-3-(2,6-Difluoro-phenyl)-N-{1-[3-(4-pyridin-2-yl-piperazin-1-yl)-phenyl]-ethyl}-acrylamide]	280
C[C@H](NC(=O)/C=C/c1ccccc1F)c1cccc(N2CCN(c3ccccn3)CC2)c1 [Example 3, (S)-3-(2-Fluoro-phenyl)-N-{1-[3-(4-pyridin-2-yl-piperazin-1-yl)-phenyl]-ethyl}-acrylamide]	476

Next, values leading:

EC50 [nM]	Compound
1	C[C@H](NC(=O)/C=C/c1ccc(Cl)cc1F)c1cccc(N2CCN(c3ccccn3)CC2)c1 [Example 17, (S)-3-(4-Chloro-2-fluoro-phenyl)-N-{1-[3-(4-pyridin-2-yl-piperazin-1-yl)-phenyl]-ethyl}-acrylamide]
1	C[C@H](NC(=O)/C=C/c1ccc(F)cc1F)c1cccc(N2CCN(c3ccccn3)CC2)c1 [Example 11, (S)-3-(2,4-Difluoro-phenyl)-N-{1-[3-(4-pyridin-2-yl-piperazin-1-yl)-phenyl]-ethyl}-acrylamide]
4	C[C@H](NC(=O)/C=C/c1cc(F)ccc1F)c1cccc(N2CCN(c3ccccn3)CC2)c1 [Example 12, (S)-3-(2,5-Difluoro-phenyl)-N-{1-[3-(4-pyridin-2-yl-piperazin-1-yl)-phenyl]-ethyl}-acrylamide]
